Results: US12331052B2, “Organic compounds” (INTRA-CELLULAR THERAPIES, INC., priority 2018, dated 2025)
Values joined by “and” are separate entries in the source; they are usually repeats but may differ in a detail not shown here. Identical values can stand only once. Like-named read-outs stand apart in the source and are kept apart here.

Columns and labels:
[1] = target: 5-HT2A (Homo sapiens, UniProt P28223); assay: biochemical; type: binding; details: read-out: maximum inhibition
[2] = target: D2 (Homo sapiens, UniProt P14416); assay: Receptor binding, D2; details: @ 100 nM; read-out: maximum inhibition
[3] = target: D1 (Homo sapiens, UniProt P21728); assay: Receptor binding, D1; details: @ 100 nM; read-out: maximum inhibition
[4] = target: SERT (Homo sapiens, UniProt P31645); assay: biochemical; type: binding; details: read-out: maximum inhibition
[5] = system: tyrosine hydroxylase phosphorylation at Ser40; assay: CNS phosphoprotein profile, nucleus accumbens: TH; type: in vivo, mice; details: for increase in TH phosphorylation: mice nucleus accumbens, haloperidol 2 mg/kg, relative to vehicle-treated control
Protocol: (§1) A comprehensive molecular phosphorylation study is also carried out to examine the central nervous system (CNS) profile of the compound of Example 1. The extent of protein phosphorylation for selected key central nervous system proteins is measured in mice nucleus accumbens.
(§2) Mice were killed 30 minutes to 2 hours post-injection by focused microwave cranial irradiation, which preserves brain phosphoprotein as it exists at the time of death. Nucleus accumbens was then dissected from each mouse brain, sliced and frozen in liquid nitrogen. Samples were further prepared for phosphoprotein analysis via SDS-PAGE electrophoresis followed by phosphoprotein-specific immunoblotting, as described in Zhu H, et al., Brain Res. 2010 Jun. 25; 1342:11-23. Phosphorylation at each site was quantified, normalized to total levels of the protein (non-phosphorylated), and expressed as percent of the level of phosphorylation in vehicle-treated control mice.

[6] = system: NR2B phosphorylation at Tyr1472; assay: CNS phosphoprotein profile, nucleus accumbens: NR2B; type: in vivo, mice; details: 3 mg/kg; at 30-60 minutes
Protocol: as §1, §2

[7] = system: mice; assay: Mouse marble-burying study (OCD model); type: in vivo; details: 0.3 mg/kg orally 30 minutes prior, of 15 marbles
From the text: The marble burying test is used to measure repetitive and anxiety-related behavior in rodents. It is based on the observation that rats and mice will bury either harmful or harmless objects in their bedding, and it has been used as an animal model to measure the effect of pharmacological interventions in treatment of repetitive behavior disorders, such as OCD.
MPEP is a selective mGluR5 glutamate receptor antagonist. […] Mice in groups (1) are orally administered the vehicle, and mice in group (4) are given an intraperitoneal injection of MPEP just prior to the start of the test.
The test is conducted in rectangular cages with 4-5 cm of wood chip bedding in a room with the window shades lowered and the door closed to minimize distractions. Fifteen clean marbles are evenly spaced on top of the bedding in three rows of five marbles. One mouse is placed in each cage. The mouse in the cage is left undisturbed for 30 minutes. At the end of the test, the mouse is removed and the number of marbles buried to at least ⅔ of their depth is counted.

[8] = system: C57 mice; details: mouse, in vivo
[9] = system: rats; assay: Pulmonary function in rats; type: in vivo; details: for RR: 60 minutes
[10] = male, Sprague-Dawley, rat, in vivo, sc, 0.3 mg/kg
[11] = rat, in vivo
[12] = system: rats; details: for Motility Ratio: 30 minutes prior to charcoal bolus
[13] = system: male Sprague-Dawley rats; assay: Rat tolerance/dependence study (28 day)
[14] = system: male C57BL/6J mice; details: mouse, in vivo

Chain of D2 (P14416 1-414 isoform P14416-2): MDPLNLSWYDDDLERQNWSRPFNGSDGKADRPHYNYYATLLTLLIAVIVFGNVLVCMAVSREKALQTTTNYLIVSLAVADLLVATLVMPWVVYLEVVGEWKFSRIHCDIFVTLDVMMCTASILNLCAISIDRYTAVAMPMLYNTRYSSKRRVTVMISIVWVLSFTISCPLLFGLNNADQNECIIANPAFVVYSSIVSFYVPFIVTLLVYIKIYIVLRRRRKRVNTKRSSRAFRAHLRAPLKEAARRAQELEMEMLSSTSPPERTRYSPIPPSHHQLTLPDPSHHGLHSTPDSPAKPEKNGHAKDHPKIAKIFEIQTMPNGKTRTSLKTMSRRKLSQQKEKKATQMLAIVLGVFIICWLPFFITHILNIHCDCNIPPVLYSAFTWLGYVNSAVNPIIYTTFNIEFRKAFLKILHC
Chain of SERT (P31645 whole entry, species assumed): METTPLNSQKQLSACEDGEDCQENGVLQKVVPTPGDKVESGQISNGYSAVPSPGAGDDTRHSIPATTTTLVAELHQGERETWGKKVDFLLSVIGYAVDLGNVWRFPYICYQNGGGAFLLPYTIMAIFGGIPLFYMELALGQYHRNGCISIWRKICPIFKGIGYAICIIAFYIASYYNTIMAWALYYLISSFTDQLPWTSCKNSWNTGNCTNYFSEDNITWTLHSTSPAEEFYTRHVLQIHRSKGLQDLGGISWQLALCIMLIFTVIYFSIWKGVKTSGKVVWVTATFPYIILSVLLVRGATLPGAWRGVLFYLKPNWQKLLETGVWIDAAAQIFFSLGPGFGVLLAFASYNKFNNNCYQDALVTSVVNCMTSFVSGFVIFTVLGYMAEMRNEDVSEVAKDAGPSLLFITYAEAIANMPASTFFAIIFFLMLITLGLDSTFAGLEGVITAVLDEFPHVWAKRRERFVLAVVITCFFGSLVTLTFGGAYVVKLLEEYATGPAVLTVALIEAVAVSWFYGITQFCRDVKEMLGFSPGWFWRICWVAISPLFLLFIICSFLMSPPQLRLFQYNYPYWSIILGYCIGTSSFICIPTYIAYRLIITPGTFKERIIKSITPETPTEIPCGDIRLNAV
Chain of 5-HT2A (P28223 whole entry): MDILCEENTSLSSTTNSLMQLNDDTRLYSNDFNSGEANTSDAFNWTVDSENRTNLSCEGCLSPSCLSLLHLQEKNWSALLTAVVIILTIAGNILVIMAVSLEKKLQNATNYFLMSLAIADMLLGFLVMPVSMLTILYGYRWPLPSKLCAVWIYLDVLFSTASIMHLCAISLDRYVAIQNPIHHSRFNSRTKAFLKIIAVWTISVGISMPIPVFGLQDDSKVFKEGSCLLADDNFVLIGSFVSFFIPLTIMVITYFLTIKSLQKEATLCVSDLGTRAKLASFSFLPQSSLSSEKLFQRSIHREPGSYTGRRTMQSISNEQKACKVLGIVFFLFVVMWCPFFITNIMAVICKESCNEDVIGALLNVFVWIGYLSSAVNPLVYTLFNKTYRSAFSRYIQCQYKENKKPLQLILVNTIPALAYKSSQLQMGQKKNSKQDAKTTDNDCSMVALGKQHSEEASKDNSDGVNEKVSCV
Chain of D1 (P21728 whole entry): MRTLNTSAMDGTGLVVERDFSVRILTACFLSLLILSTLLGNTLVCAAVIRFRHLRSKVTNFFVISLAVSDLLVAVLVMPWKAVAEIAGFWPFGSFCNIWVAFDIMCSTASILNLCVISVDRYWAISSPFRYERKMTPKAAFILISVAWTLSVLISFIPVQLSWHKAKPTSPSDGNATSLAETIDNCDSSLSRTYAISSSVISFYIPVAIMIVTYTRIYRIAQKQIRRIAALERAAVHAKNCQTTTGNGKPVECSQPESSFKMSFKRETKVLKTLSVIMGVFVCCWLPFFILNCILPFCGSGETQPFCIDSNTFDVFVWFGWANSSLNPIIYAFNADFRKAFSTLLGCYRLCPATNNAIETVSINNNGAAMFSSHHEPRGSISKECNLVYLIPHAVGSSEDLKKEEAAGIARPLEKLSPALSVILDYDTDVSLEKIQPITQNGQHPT

Cc1ccc(OCCCN2CC[C@H]3[C@@H](C2)c2cccc4c2N3CC(=O)N4)cc1 [Example 25, (6bR,10aS)-8-(3-(p-tolyloxy)propyl)-6b,7,8,9,10,10a-hexahydro-1H-pyrido-[3′,4′:4,5]pyrrolo[1,2,3-de]quinoxalin-2(3H)-one]
inhibition at 0.1 µM [1]: 62%
inhibition at 0.1 µM [2]: 21%
inhibition at 0.1 µM [3]: 14%
inhibition at 0.2 µM [4]: 10%

O=C1CN2c3c(cccc3[C@@H]3CN(CCCOc4ccc(F)cc4)CC[C@@H]32)N1 [Example 1, (6bR,10aS)-8-(3-(4-fluorophenoxy)propyl)-6b,7,8,9,10,10a-hexahydro-1H-pyrido[3′,4′:4,5]pyrrolo[1,2,3-de]quinoxalin-2(3H)-one]
effect on tyrosine hydroxylase phosphorylation at Ser40 ([5]; 3 mg/kg, at 30 minutes or 60 minutes): no significant effect
effect on NR2B phosphorylation at Tyr1472 [6]: no significant effect
Marbles Buried [7]: 9.3
Mean Behavior Rating (0-4) ([8]; po, 3 mg/kg): 0.9 and 0.8 and 1.5
Mean Behavior Rating (0-4) ([8]; sc, 1 mg/kg): 1.0 and 1.9 and 1.1
RR ([9]; 0.3 mg/kg SC): 181 breaths/min
RR ([9]; 1.0 mg/kg SC): 203 breaths/min
RR ([9]; 3.0 mg/kg SC): 190 breaths/min
respiratory rate, tidal volume and minute volume vs vehicle ([9]; 0.3, 1.0 and 3.0 mg/kg SC, 0, 15, 60, 120, 240 minutes): no significant differences
peak plasma concentrations [10]: 15 to 38 ng/mL
Bioavailability ([11]; iv, 1 mg/kg): 100%
t-1/2 ([11]; po, 10 mg/kg): 3.1 h
t-1/2 ([11]; sc, 3 mg/kg): 9.5 h
effect on gastrointestinal motility ([12]; at a dose up to 3 mg/kg): no significant effect
physical dependence upon cessation of dosing ([13]; 0.3 and 3 mg/kg): not to produce a syndrome of physical dependence
tolerance during subcutaneous dosing for 28 days ([13]; 0.3 and 3 mg/kg four times): does not produce tolerance
effect on animal body weight, food and water intake or body temperature ([13]; 0.3 and 3 mg/kg s.c. four times per day, on-dose or withdrawal phase): no significant effect
main behavioral and physical signs ([13]; higher dose (3 mg/kg)): hunched posture, subdued behavior, Straub tail, tail rattle and piloerection
predominant behavioral and physical effects, dosing phase ([13]; repeated administration at 0.3 mg/kg): hunched posture, Straub tail and piloerection

O=C1CN2c3c(cccc3[C@@H]3CN(CCCOc4cccc(F)c4)CC[C@@H]32)N1 [Example 20, (6bR,10aS)-8-(3-(3-fluorophenoxy)propyl)-6b,7,8,9,10,10a-hexahydro-1H-pyrido[3′,4′:4,5]pyrrolo[1,2,3-de]quinoxalin-2(3H)-one]
inhibition at 0.1 µM [1]: 79%
inhibition at 0.1 µM [2]: 14%
inhibition at 0.1 µM [3]: 32%
inhibition at 0.2 µM [4]: 8%

O=C1CN2c3c(cccc3[C@@H]3CN(CCCc4n[nH]c5cc(F)ccc45)CC[C@@H]32)N1 [Example 2, (6bR,10aS)-8-(3-(6-fluoro-1H-indazol-3-yl)propyl)-6b,7,8,9,10,10a-hexahydro-1H-pyrido[3′,4′:4,5]pyrrolo[1,2,3-de]quinoxalin-2(3H)-one]
Motility Ratio ([12]; 0.3 mg/kg SC): 0.50
Motility Ratio ([12]; 1 mg/kg SC): 0.55
Motility Ratio ([12]; 3 mg/kg SC): 0.50

CC(C)N1C(=O)CN2c3c(cccc31)[C@@H]1CN(CCCOc3ccc(F)cc3)CC[C@@H]12 [Example 22, (6bR,10aS)-8-(3-(4-fluorophenoxy)propyl)-3-isopropyl-6b,7,8,9,10,10a-hexa-hydro-1H-pyrido[3′,4′:4,5]pyrrolo[1,2,3-de]quinoxalin-2(3H)-one]
inhibition at 0.1 µM [1]: 81%
inhibition at 0.1 µM [2]: 39%
inhibition at 0.1 µM [3]: 70%
inhibition at 0.2 µM [4]: 11%

Cc1nc2n(c(=O)c1CCN1CCC(c3noc4cc(F)ccc34)CC1)CCCC2 [risperidone]
increase in TH phosphorylation [5]: greater than 500%

O=C1CN2c3c(cccc3[C@@H]3CN(CCCOc4ccc(Br)cc4)CC[C@@H]32)N1 [Example 24, (6bR,10aS)-8-(3-(4-bromophenoxy)propyl)-6b,7,8,9,10,10a-hexahydro-1H-pyrido[3′,4′:4,5]pyrrolo[1,2,3-de]quinoxalin-2(3H)-one]
inhibition at 0.1 µM [1]: 72%
inhibition at 0.1 µM [2]: 8%
inhibition at 0.1 µM [3]: 3%
inhibition at 0.2 µM [4]: 44%

C=CCN1CC[C@]23c4c5ccc(O)c4O[C@H]2C(=O)CC[C@@]3(O)[C@H]1C5 [Naloxone, naloxone]
Body Weight Loss [14]: 0.5%
Jumps [14]: 0
Paw Tremors [14]: 0.87
Total Number of Signs [14]: 2.2

CN1CC[C@]23c4c5ccc(O)c4O[C@H]2[C@@H](O)C=C[C@H]3[C@H]1C5 [Morphine, morphine, reference compound]
reduction in gastric motility ([12]; 5 mg/kg SC): ~50%

O=C1CN2c3c(cccc3[C@@H]3CN(CCCOc4ccc(I)cc4)CC[C@@H]32)N1 [Example 23, (6bR,10aS)-8-(3-(4-iodophenoxy)propyl)-6b,7,8,9,10,10a-hexahydro-1H-pyrido[3′,4′:4,5]pyrrolo[1,2,3-de]quinoxalin-2(3H)-one]
inhibition at 0.1 µM [1]: 81%
inhibition at 0.1 µM [2]: 14%
inhibition at 0.1 µM [3]: 3%
inhibition at 0.2 µM [4]: 48%

O=C(CCCN1CCC(O)(c2ccc(Cl)cc2)CC1)c1ccc(F)cc1 [haloperidol]
increase in TH phosphorylation [5]: greater than 400%

O=C1CN2c3c(cccc3[C@@H]3CN(CCCOc4ccccc4F)CC[C@@H]32)N1 [Example 21, (6bR,10aS)-8-(3-(2-fluorophenoxy)propyl)-6b,7,8,9,10,10a-hexahydro-1H-pyrido[3′,4′:4,5]pyrrolo[1,2,3-de]quinoxalin-2(3H)-one]
inhibition at 0.1 µM [1]: 88%
inhibition at 0.1 µM [2]: 28%
inhibition at 0.1 µM [3]: 18%
inhibition at 0.2 µM [4]: 5%
